Values after ≈ are worked out from the molar mass of the structure shown. “Also recorded” adds a separate entry of the source. Read-outs that look alike come from different tables or passages of the source.
Assays:
FimH [1] = target: T1, FimH (Escherichia coli, UniProt P08191); assay: biochemical; type: binding, E. coli; details: FP assay potency
FimH [2] = target: T1, FimH; details: previously reported, SPR, cited from earlier work
UTI89 biofilm [3] = assay: Biofilm in human urine under flow on silicone tubing (crystal violet, CFU); type: cell-based, uropathogenic E. coli UTI89; details: 1% in human urine, 24 h
Protocol: Biofilms were grown as described by Ferrieres et al. (2007; FEMS Immun. Med. Micro 51:212) on All Silicone Foley catheters (Bard Medical, GA) or silicone tubing (Thermo Fisher Scientific Inc., PA) and modified as follows. All tubing and connectors in the system were autoclaved and ethanol sterilized prior to use. The system was assembled similar to the previously described flow-chamber system. Priming of the catheter or the silicone tubing occurred at 37° C. for 20 min by flowing pre-warmed pooled human urine. Urine was collected from healthy volunteers as approved by the Institutional Review Board of Washington University in St. Louis. Pooled samples were spun at 10000×g for 15 min, filtered through […], and, if necessary, stored at 4° C. for no more than 3 days. Three milliliters of stationary-phase E. coli from overnight cultures were diluted to 1−2×10^6 CFU/ml in human urine and injected into the catheter or silicone tubing using a 30 cc gauge needle. The bacteria were allowed to attach to the substratum for 1 h before urine flow via Watson-Marlow peristaltic pump 205S was resumed at 0.5 ml min^−1. […] Viable bacterial counts were assessed by serial dilution on LB plate with appropriate antibiotics. […] The bound crystal violet was then dissolved in 200 μl of 33% acetic acid and absorbance measured at 595 nm. The amount of biofilm was expressed as CFU/ml per cm^2 and A595/cm^2. […]

PBC-1 = assay: Growth curve / MIC determination in LB; type: cell-based, E. coli (UPEC); details: PBC-1
Protocol: Growth curve. […] Mannoside ZFH-2056 was added at 100 μM. Growth curves were performed in a 96-well plate at 37° C. with A600 readings taken every 30 min for 8 h.
(§1) Mannoside 6 was added at 100 μM. Growth curves were performed in a 96-well plate at 37° C. with A600 readings taken every 30 min for 8 h. Minimum inhibitory concentration (MIC) was calculated as the lowest concentration of antibiotic that prevented growth of the bacterial strain.

UTI89 [4] = assay: Growth curve / MIC determination in LB; type: cell-based, E. coli (UPEC); details: Escherichia coli
Protocol: as §1

UTI89 [5] = assay: Ex vivo gentamicin protection assay of infected mouse bladders (luminal vs intracellular bacteria); type: in vivo, E. coli (UPEC); host mouse; details: 1 hour post-infection, bacteria inoculated in presence of mannoside
Text: Based on the extensive elucidation of the UPEC pathogenic cascade, critical nodes in pathogenesis that mannosides would target and thereby have powerful and potent therapeutic ramifications were identified. The first step in the UPEC pathway involves FimH-mediated colonization of the bladder epithelium via the recognition of mannose receptors. Bacterial invasion into superficial bladder umbrella cells can then ensue. […] To test this, a well-established gentamicin protection assay that allows the determination of the luminally bound fraction versus the intracellular fraction was utilized (FIG. 10). […] This may be due to contamination from bacteria in the urine or bacteria that are non-specifically associated with the epithelium. In any case, blocking invasion blocks the ability of the bacteria to rapidly expand in numbers. This is due to the ability of the mannosides to block the IBC mechanism.
Gentamicin protection assay. To enumerate bacteria present in the intracellular versus extracellular compartments, bladders were aseptically harvested at 6 hpi. The bladders were then bisected twice and washed three times in 500 μl of PBS each. The wash fractions were pooled, lightly spun at 500 rpm for 5 min to pellet exfoliated bladder cells, serially diluted, and plated onto LB agar to obtain the luminal fraction. The bladders were treated with 100 μg of gentamicin/ml for 90 min at 37° C. After treatment, the bladders were washed twice with PBS to eliminate residual gentamicin, homogenized in 1 ml of PBS, serially diluted, and plated onto LB agar to enumberate the CFUs in the intracellular fraction.
To enumerate bacteria present in the intracellular versus extracellular compartments, bladders were aseptically harvested at 6 hpi. The bladders were then bisected twice and washed three times in 500 μl of PBS each. The wash fractions were pooled, lightly spun at 500 rpm for 5 min to pellet exfoliated bladder cells, serially diluted, and plated onto LB agar to obtain the luminal fraction. The bladders were treated with 100 μg of gentamicin/ml for 90 min at 37° C. […]

UTI89 [6] = assay: Mouse UTI model, bladder bacterial titers (CFU); type: in vivo, E. coli (UPEC); host C3H/HeN mouse; details: 6 hours post-infection
Protocol: For mannoside treatment, bacteria were incubated with 1 mM ZFH56 prior to inoculation. Every 24 h for 3 days, mice were transurethrally inoculated with 1 mM ZFH56. For antibiotic treatment, mice were inoculated with UTI89 and immediately given antibiotics in the drinking water for 3 days. Antibiotics used were trimethoprim-sulfamethoxazole (SXT) at […], respectively. For dual treatment, bacteria were incubated with 1 mM ZFH56 prior to inoculation. Every 24 h for 3 days, mice were transurethrally inoculated with 1 mM ZFH56. Additionally, mice were immediately given antibiotics in the drinking water for 3 days as in the antibiotic only treatment. Urine was collected every day for 13 days. At 2 weeks, mice were sacrificed and bladders were titered.
UTI89 biofilm was grown in LB+/− mannoside for 24 h at 22° C. in PVC plates and quantitated using crystal violet. UTI89 biofilm for confocal microscopy was grown in LB for 24 h at 22° C. on PVC coverslips. Mannoside was then added and biofilm was grown for an additional 16 h. Coverslips were then washed in PBS, fixed in 2% paraformaldehyde and stained with SYTO9 prior to confocal microscopy. For all animal experiments UTI89 or PBC-1 was grown 2×24 h statically in LB at 37° C. and inoculated at a dose of 1×10^7 bacteria in 50 μl. All mice used were female C3H/HeN (Jackson). For the pretreatment studies, bacteria were incubated with mannoside for 20 min prior to inoculation into the mouse. […] For CFU counts, bladders were harvested at 6 hpi and placed in 1 mL PBS. Bladders were then homogenized, diluted and plated on LB. After growth at 37° C. overnight, bacterial counts were determined. LacZ staining and gentamicin protection assays were performed at 6 hpi. […] Water was changed daily with fresh antibiotics. Standard growth curve assays and hemagglutination assays were performed with TMP-SMZ. All statistical analysis performed was a two-tailed Mann-Whitney U test.
Animal infections. Bacteria were grown under type 1 pili-inducing conditions (2×24 h at 37° C. statically in LB). The bacteria were harvested and resuspended to an OD600 of 0.5 in PBS. Eight-week-old C3H/HeN (Harlan) female mice were anesthetized by inhalation of isoflurane and infected via transurethral catheterization with 50 μl of the bacterial suspension, resulting in 1-2×10^7 inoculum. At 6 hpi, mice were sacrificed by cervical dislocation under anesthesia and the bladders were immediately harvested and processed as described below. All animal studies using mice were approved by the Animal Studies Committee of Washington University (Animal Protocol Number 20100002).
Bladder tissue bacterial titer determination. Mannoside ZFH-2056 was administered either IP (5 mg/kg) or orally (100 mg/kg) 30 min prior to inoculation with UTI89. […]

FimH [7] = target: FimH (Escherichia coli, UniProt Q1R2J4);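 note: hemagglutination inhibition of guinea pig erythrocytes agglutinated by type 1 piliated uropathogenic E. coli via FimH mannose binding, quantified through serial dilutions of compound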
UTI89 [8] = assay: Enumeration of bladder IBCs by LacZ staining in infected mice; type: in vivo, E. coli (UPEC); host C3H/HeN mouse; details: 6 hours post-infection
Protocol: After invasion, UPEC are able to rapidly replicate to form IBCs, thus dramatically expanding in numbers. After maturation of the IBC, bacteria are able to disperse from the biomass and spread to neighboring cells to expand the buildup in bacterial numbers via next generation IBC. The ability of mannosides to block IBC formation was evaluated based on LacZ staining of whole mount bladders, a protocol developed to enumerate IBCs. Whole bladder titers were also determined by quantifying colony forming units (CFUs) at 6 hours post-infection and later time points as test compounds were further developed.
(§2) Enumeration of bladder IBCs. For bacterial pretreatment experiments, mannoside was added to the bacterial suspension and incubated for 20 min. For animal pretreatment experiments, mannoside ZFH-2056 was administered either IP (5 mg/kg) or orally (100 mg/kg) 30 min prior to inoculation with UTI89. To accurately count the number of IBCs, mice were sacrificed 6 hpi and bladders were aseptically removed, bisected, splayed on silicone plates and fixed in 2% paraformaldehyde (v/v). IBCs, readily discernable as punctate violet spots, were quantified by LacZ staining of whole bladders.
as §2, with “For” for “Enumeration of bladder IBCs. For bacterial pretreatment experiments, mannoside was added to the bacterial suspension and incubated for 20 min. For”

UTI89 biofilm [9] = assay: UTI89 type 1 dependent biofilm formation (inhibition/prevention) assay on PVC, crystal violet; type: cell-based, uropathogenic E. coli UTI89; details: 1 mM
Outline: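 Prevention: UTI89 grown in LB in PVC wells at 23° C with mannoside at varying concentrations for 48 h, then crystal violet stained and quantified. Disruption: 24 h UTI89 biofilm, mannoside added, grown 16 h more, then crystal violet.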

[10] = UTI89 inoculated in presence of pilicide

SMILES: CCCCCCCOC1OC(CO)C(O)C(O)C1O (stereo not drawn) [Heptyl mannoside, reference compound]
- EC50 (FimH [1]): 89 nM
- Kd (FimH [2]): 5 nM

SMILES: COC1O[C@H](CO)[C@@H](O)[C@H](O)[C@@H]1O (stereo partly drawn) [methyl mannose]
- biofilm biomass (crystal violet) (UTI89 biofilm [3]): significantly reduced biomass; also recorded: prevents UPEC biofilm formation
- biofilm-adherent cells (CFU) (UTI89 biofilm [3]): significantly reduced

SMILES: COc1cc(Cc2cnc(N)nc2N)cc(OC)c1OC [TMP, Trimethoprim]
- MIC (PBC-1; Escherichia coli, read-out: Minimum Inhibition Concentration (MIC)): 256 µg/mL (≈ 882 µM)
- MIC (PBC-1): 0.000256 µg/mL (≈ 0.000882 µM)
- MIC (UTI89 [4]): 0.05 µg/mL (≈ 0.172 µM)

SMILES: CCCCO[C@H]1O[C@H](CO)[C@@H](O)[C@H](O)[C@@H]1O [butylmannoside, α-D-butylmannoside]
- Kd (FimH [2]; read-out: KD): 151 nM

SMILES: NC(=O)c1cccc(OC2OC(CO)C(O)C(O)C2O)c1 (stereo not drawn) [Compound 2ZFH98, 3-[3,4,5-trihydroxy-6-(hydroxymethyl)tetrahydropyran-2-yl]oxybenzamide]
- intracellular bacteria (UTI89 [5]): significant decrease
- bladder CFUs / colonization (UTI89 [6]; 1 mM mannoside treated bacteria): significantly reduced colonization
- HAI Titer EC>90 (FimH [7]): 16.000 µM
- IBCs (UTI89 [8]; 0.1 mM mannoside): significantly reduced IBCs
- IBCs (UTI89 [8]; 1 mM mannoside): significantly reduced IBCs

SMILES: Cc1cc(NS(=O)(=O)c2ccc(N)cc2)no1 [SMZ, Sulfamethoxazole]
- MIC (UTI89 [4]): 0.25 µg/mL (≈ 0.987 µM)

SMILES: O=C(O)[C@@H]1CSc2c(-c3cccc(C(F)(F)F)c3)c(Cc3cccc4ccccc34)cc(=O)n21 [FN075, reference compound]
- bacterial load within the bladder (UTI89 [6]; [10]): significant attenuation of virulence; also recorded: significantly reduced bacterial load
- IBCs in the bladder (UTI89 [8]; [10]): significant attenuation of virulence; also recorded: significantly less IBCs

SMILES: CCCCCCCO[C@H]1O[C@H](CO)[C@@H](O)[C@H](O)[C@@H]1O [heptyl mannose]
- virulence / bladder bacterial load (UTI89 [6]; UTI89 incubated with 5 mM compound before inoculation): significant attenuation of virulence; also recorded: reduction of bacterial load in the bladder
- inhibition of UPEC biofilm formation in vitro (UTI89 biofilm [9]): inhibited UPEC biofilm formation
